Results taken from patent US7057059B2, “Tumor-inhibiting platinum (II) oxalate complexes” (Faustus Forschungs CIE. Translational Cancer Research GmbH, priority 2002, dated 2006).

Experiments:
[1] = MTD study on animals free of tumors; conditions: in vivo
[2] = tested on: animals free of tumors; test: MTD study on animals free of tumors; conditions: on day 5, at MTD 10 mg/kg Qd×5
[3] = tested on: Female, tumor-bearing B6D2F1 mouse; test: In vivo efficacy study: survivors on day 14 after tumor transplantation; conditions: for Survivors/total number: Qd×5, day 14 after tumor transplantation; for animals still alive on day 14: highest dosage level
Text: Female, tumor-bearing B6D2F1 mouse, day 14 after tumor transplantation.

[4] = tested on: CH1 (adenocarcinoma of the ovary); type: cell-based; conditions: cell line CH1, MTT, 96 h
Procedure: (§1) The cytotoxicity of the compounds according to Examples 1 and 2 was tested by using the following cell lines 41M, CH1 and SW480. In this respect the following method was selected:
(§2) In this regard, adherent monolayer cultures of the following cell lines were used: 41M (adenocarcinoma of the ovary), CH1 (adenocarcinoma of the ovary), SW480 (adenocarcinoma of the colon; primary resistance to cisplatinum).
(§3) Culture conditions: The cells were kept in 75 cm^2 culture flasks at 37° C. and moist atmosphere (5% CO2). Minimal Essential Medium (MEM) was used as culture medium, with 2 mmol/l I-glutamine, 1 mmol/l sodium pyruvate, 50 IU/ml penicillin, 50 μg/ml streptomycin and 10% heat-inactivated foetal bovine serum.
(§4) Test execution: Cell suspensions were obtained from subconfluent cultures by treatment with trypsin and seeded in defined density in 96-well microculture plates. The initial density was selected such that for the complete test duration an exponential growth of the cultures was guaranteed. For the cell line 41M this was 4·10^4 cells/ml, for CH1 1.25·10^4 cells/ml and for SW480 1.5·10^4 cells/ml. The plates were incubated for 24 h under standard conditions to achieve cell establishment. Then the compounds to be tested were introduced in ten-staged concentration series in the culture medium (without addition of organic solvents or dissolving agents) into the plates and left for the complete test duration (96 h). Per experiment each concentration was tested on eight microcultures of the same cell line. At the end of the experiment the respective number of living cells in the microculture was determined spectrophotometrically (at 550 nm) using the MTT-dye reaction in relationship to the untreated control cultures. Equally, the number of living cells in microculture plates started in parallel was quantified at the start of the active substance exposition. […] The mean values were used for the evaluation.

[5] = tested on: SW480 (adenocarcinoma of the colon; primary resistance to cisplatinum); type: cell-based; conditions: cell line SW480, MTT, 96 h
Procedure: as §1, §2, §3, §4

[6] = tested on: 41M (adenocarcinoma of the ovary); type: cell-based; conditions: cell line 41M, MTT, 96 h
Procedure: as §1, §2, §3, §4

[7] = tested on: leukaemia L1210; test: L1210 leukaemia in the mouse; type: in vivo; conditions: for effectiveness (survival to the end of the experiment): 3 mg/kg and 6 mg/kg, 21 day study
Text: FIG. 4 is a bar graph of the results of the effectiveness of (4-methyl-trans-chxn)Pt(ox) in comparison to I-OHP in leukaemia L1210 in the mouse at various dosages over a 21 day study.

Compound	MTD at 5 days [1] [mg/kg]	weight loss [2] [%]	animals still alive on day 14 [3]	Gl50 [4] [µM]	IC50 [4] [nM]	TGI [4] [nM]	Gl50 [5] [µM]	IC50 [5] [nM]	TGI [5] [nM]	GL50 [6] [µM]	IC50 [6] [nM]	TGI [6] [nM]	effectiveness (survival to the end of the experiment) [7]	other results
CCC1CCC2[NH][Pt]3([NH]C2C1)[O]C(=O)C(=O)[O]3 (stereo not drawn) [[(4-ethyl-trans-chxn)Pt(ox)], (SP-4-3)-(4-ethyl-trans-cyclohexane-1,2-diamine)oxalatoplatinum (II)]	10	5	6/6	–	–	–	–	–	–	–	–	–	–	Survivors/total number ([3]; dose 1.34 mg/kg): 5/6; Survivors/total number ([3]; dose 2.68 mg/kg): 6/6; Survivors/total number ([3]; dose 5.35 mg/kg): 6/6
O=C(O)C(=O)O.[NH-]C1CCCCC1[NH-].[Pt+2] (stereo not drawn) [[(trans-S,S-chxn)Pt(ox)]]	–	–	–	1.14	1500	4200	2.2	4200	47800	1.11	3200	4400	–	–
(SP-4-3)-(4-methyl-trans-cyclohexane-1,2-diamine)oxalatoplatinum (II) [[(4-methyl-trans-chxn)Pt(ox)]]	–	5	4/6	0.22	340	930	0.31	650	9000	0.91 ± 0.16	2400	4200 ± 2600	all animals survived the experiment to the end	tolerance at high dosage ([7]; 24 mg/kg, in comparison to I-OHP): better tolerance; Survivors/total number ([3]; dose 1.30 mg/kg): 6/6; Survivors/total number ([3]; dose 2.60 mg/kg): 5/6; Survivors/total number ([3]; dose 5.20 mg/kg): 4/6
O=C(O)C(=O)O.[NH-][C@@H]1CCCC[C@H]1[NH-].[Pt+2] [[(trans-chxn)Pt(ox)]]	–	–	–	0.54	700	2000	0.8	1600	21800	0.99	4200	5000	–	–
O=C1[O][Pt]2([NH]C3CCCC[C@H]3[NH]2)[O]C1=O (stereo partly shown) [Oxaliplatinum, oxaliplatinum]	5	–	death of all animals	–	–	–	–	–	–	–	–	–	deaths already occurred	Survivors/total number ([3]; dose 1.25 mg/kg): 5/6; Survivors/total number ([3]; dose 2.50 mg/kg): 6/6; Survivors/total number ([3]; dose 5.00 mg/kg): 0/6
